According to US20040157892A1, “Pesticidal fluoroethyl pyrazoles” (CROMPTON CO./Cie, priority 2003, published 2004):

Legend:
Assay type in all cases: in vivo
[1] = test system: Tetranychus urticae Motiles; experiment: mite contact (MIC) bioassay; conditions: 300 ppm, contact on bean leaf, evaluated five days later
Description: (§1) For each compound tested, a stock solution of 3000 ppm was prepared by diluting 0.008 gram of each compound into 2.67 mL of acetone and further diluting with water to make the final concentrations used for the various screens, as follows:
In the mite contact (MIC) bioassay, approximately 20 motile mites confined on a cowpea leaf were sprayed with a 300 ppm concentration and evaluated five days later.
(§2) Since only a single replicate was used for the DBM and SCR screens, confirmation of mortality in an additional evaluation with three larvae at the 100 ppm rate was required to substantiate the initial observation of activity.

Tetranychus urticae Eggs = experiment: mite ovicide (MIOV) bioassay; conditions: 100 ppm, contact on bean leaf, egg hatch evaluated nine days later
Description: as §1
In the mite ovicide (MIOV) bioassay, approximately 30 mite eggs on cowpea foliage were sprayed with a 100 ppm solution and egg hatch was evaluated nine days later.
as §2

[2] = test system: Plutella xylostella Larva; experiment: diamondback moth (DBM) bioassay; conditions: 100 ppm, residual on diet, evaluated five days later, confirmed with three larvae
Description: as §1
In the diamondback moth (DBM) bioassay, a single larva was exposed to a diet with a surface that had been coated with a 100 ppm solution, and evaluated five days later.
as §2

Compound | Pesticidal Activity MIC (control) [1] [%] | Pesticidal Activity MIOV (control) (Tetranychus urticae Eggs) [%] | Pesticidal Activity DBM (control) [2] [%]
FCCn1cc(-c2cccc(Cl)n2)cn1 [Compound 8, 1-(2-fluoroethyl)-4-(6-chloro-2-pyridyl)pyrazole] | 100 | 100 | –
FCCn1cc(-c2ccc(Cl)s2)cn1 [Compound 6, 1-(2-fluoroethyl)-4-(5-chloro-2-thienyl)pyrazole] | 100 | 100 | 100
FCCn1cc(C#Cc2ccc(Cl)cc2)cn1 [Compound 9, 1-(2-fluoroethyl)-4-[(4-chlorophenyl)ethynyl]pyrazole] | 100 | 100 | –
FCCn1cc(C#Cc2cccnc2)cn1 [Compound 10] | 100 | 100 | –
Isopropyl 1-(2-fluoroethyl)-3(or 5)-nitro-1H-pyrazole-5 (or 3)-carboxylate [Compound 1] | 100 | – | 100
CCOC(=O)c1sc(-c2cnn(CCF)c2)nc1C(F)(F)F [Compound 7, Ethyl 2-[1-(2-fluoroethyl)-4-pyrazolyl]-4-trifluoromethyl-5-thiazolecarboxylate] | 100 | 100 | –
